Source: patent US20140107143A1, “QUATERNARY OPIOID CARBOXAMIDES” (Rensselaer Polytechnic Institute, priority 2007, published 2014)
Read-outs that look alike come from different tables or passages of the source.

Tests used:
human δ opioid receptor [1] = biological target: T1, human δ opioid receptor (Homo sapiens, UniProt P41143); assay: biochemical
human μ opioid receptor [2] = biological target: T2, human μ opioid receptor (Homo sapiens, UniProt P35372); assay: Opioid receptor binding assay, [3H]DAMGO (μ)
human κ opioid receptor [3] = biological target: T3, human κ opioid receptor (Homo sapiens, UniProt P41145); assay: Opioid receptor binding assay, [3H]U69,593 (κ); conditions: for K: δ / K: μ: ratio of Ki values
human δ opioid receptor [4] = biological target: T1, human δ opioid receptor
[5] = system: morphine's blockade of PGE2-induced diarrhea; assay: PGE2 model of gut motility; format: in vivo, mice
Method: To assess the effects of novel, peripherally acting opioid antagonists, we used a PGE2 (a prostaglandin) model of gut motility. PGE2 induces diarrhea within 15 minutes of an intraperitoneal (IP) injection (0.1 mg/kg) in mice.
Mice (n=10/group) were given either an IP injection or oral (PO) administration (via gavage) of a novel opioid antagonist (0-3 mg/kg, IP; 0-30 mg/kg, PO) and placed in a Plexiglas pie cage (Braintree Scientific, Braintree, Mass.). Each pie cage holds up to 10 mice and is 21.5 cm in diameter and 7.5 cm in height. Individual chambers are 5 cm (base) and 9 cm (length). […] 30 minutes later mice were treated with PGE2 (0.1 mg/kg, IP) and again returned to the pie cage. During the final observation, the presence or absence of diarrhea was recorded 15 minutes following PGE2 administration. Mice were only tested once. Saline-saline (10 mL/kg, IP) and saline-morphine were the positive control groups and all results were compared to the saline-morphine treatment group. Data represent the percent of mice with PGE2-induced diarrhea at the time of the final observation.

[6] = system: morphine-induced antinociception (tail flick); assay: Tail flick antinociception test; format: in vivo, mice; conditions: for effect on response to morphine, tail flick: oral
Method: Antinociception to acute thermal stimuli was assessed using a commercially available tail flick apparatus (Columbus Instruments, Columbus, Ohio). The tail flick test is purported to be primarily a […] reflexive response assay. In this standard model, mice are gently restrained and their tail is placed over a thermal beam. Once the beam is turned on (instant on; 9.3 watts), the time required to reflexively flick the tail is recorded. The maximum response latency (MRL) was set to 10 seconds to avoid potential thermal injury associated with longer exposure times. If there is no response after 10 seconds, mice are removed and the maximum response latency (MRL; 10 s) is recorded.
Mice (n=10/group) were first tested in the tail flick test to determine a baseline response. […] The mice were administered different doses of an opioid antagonist (IP or PO, 60 minutes prior to testing in the tail flick test). […] All results are compared to the saline-morphine treatment group mean response latency.

[7] = system: morphine-induced antinociception (hot plate); assay: Hot plate antinociception test; format: in vivo, mice
Method: Antinociception to acute thermal stimuli was assessed using a commercially available hot plate apparatus (Columbus Instruments, Columbus, Ohio). The hot plate test is purported to be a supraspinal assay of nociception. The hot plate procedure involves placing each mouse on a heated surface and activating a timer. Mice were placed individually on a hot plate (25.4 cm×25.4 cm surrounded by an acrylic box to prevent the animal from escaping); surface temperature=55° C.) and the response latency to lick either hind paw was recorded. The maximum response latency (MRL) was set to 60 seconds to avoid potential thermal injury associated with longer exposure times. The mouse is removed from the heated surface when it either licks a hind paw in response to the heat or after 60 seconds has elapsed. The latency to respond is recorded and the mouse is returned to its home cage.
Mice (n=10/group) were first tested to determine a baseline response. […] Mice were then administered different doses of an opioid antagonist (IP or PO, 60 minutes prior to testing on the hot plate test). […] All results are compared to the saline-morphine treatment group mean response latency.

[8] = PK evaluation in rats (plasma, LC-MS/MS); format: in vivo; conditions: oral administration, FIG. 4
Method: Animals were dosed with the example compound and blood samples were collected for 2 hours using the following method. Rats were briefly anesthetized with 1-2% isoflurane and blood samples (approximately […] of whole blood) from a lateral tail vein were collected into tubes containing EDTA. The tubes were centrifuged at 10K×g for 2 minutes to separate plasma. Plasma was pipetted into microcentrifuge vials and stored at −80° C. until plasma levels were determined by liquid chromatography-mass spectrometry/mass spectrometry (LC-MS/MS) (modification of Baranczewski et al., 2006). The lower limit of quantitation (LOQ) for these studies was 1.0 ng/mL and the coefficient of variation for the assay was <4.4%. The mean concentration of the example compound in plasma was calculated for each time point. […]
A bioanalytical assay was developed and qualified for measurement of the example compound in rat plasma. […] The intra-day accuracy and precision were evaluated by analysis of each 80 ng/mL, 40 ng/mL, and 8 ng/mL assay control (n=5 at each concentration) on the same day. Accuracy was calculated as a percentage ratio of measured concentration to nominal concentration and precision was expressed as the coefficient of variation. […] accuracy and precision were evaluated for each 80 ng/mL, 40 ng/mL, and 8 ng/mL assay control over 10 different runs (n=26 for each control sample). […]

human κ opioid receptor [9] = biological target: T3, human κ opioid receptor; assay: [35S]GTPγS binding assay, kappa (compound alone / with U50,488); format: biochemical; design: expressed in transfected cells
Text: Part 4. […] Binding was initiated by the addition of the membranes.

human μ opioid receptor [10] = biological target: T2, human μ opioid receptor; assay: [35S]GTPγS binding assay, mu (compound alone / with DAMGO)
Method: In a final volume of 0.5 mL, 12 different concentrations of each test compound were incubated with 15 μg (κ), 10 μg (δ) or 7.5 μg (μ) of CHO cell membranes that stably expressed either the human κ or μ opioid receptor. The assay buffer consisted of 50 mM Tris-HCl, pH 7.4, 3 mM MgCl2, 0.2 mM EGTA, 3 μM GDP, and 100 mM NaCl. The final concentration of [35S]GTPγS was 0.080 nM. […] Binding was initiated by the addition of the membranes. […] Data are the mean Emax and EC50 values±S.E.M. from at least three separate experiments, performed in triplicate.

antinociception = conditions: cited from earlier work; for duration of action: 1 mg/kg ip in mice
μ opioid receptors = conditions: cited from earlier work
κ opioid receptors = conditions: cited from earlier work
[11] = read-out: [3H]U69,593 (K) Ki, CHO membranes, human receptor, mean ± SEM
[12] = read-out: [3H]DAMGO (μ) Ki, CHO membranes, human receptor, mean ± SEM

T3 sequence (P41145 whole entry): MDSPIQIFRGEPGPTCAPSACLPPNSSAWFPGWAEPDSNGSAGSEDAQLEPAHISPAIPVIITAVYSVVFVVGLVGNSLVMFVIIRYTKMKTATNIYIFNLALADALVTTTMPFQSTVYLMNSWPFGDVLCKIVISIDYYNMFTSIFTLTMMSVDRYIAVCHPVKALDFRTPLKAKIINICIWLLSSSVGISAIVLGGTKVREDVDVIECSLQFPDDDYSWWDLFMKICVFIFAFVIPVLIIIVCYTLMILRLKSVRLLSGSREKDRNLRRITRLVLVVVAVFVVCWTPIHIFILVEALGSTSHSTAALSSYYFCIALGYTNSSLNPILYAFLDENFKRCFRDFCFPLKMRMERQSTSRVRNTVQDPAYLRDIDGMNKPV
T1 sequence (P41143 whole entry): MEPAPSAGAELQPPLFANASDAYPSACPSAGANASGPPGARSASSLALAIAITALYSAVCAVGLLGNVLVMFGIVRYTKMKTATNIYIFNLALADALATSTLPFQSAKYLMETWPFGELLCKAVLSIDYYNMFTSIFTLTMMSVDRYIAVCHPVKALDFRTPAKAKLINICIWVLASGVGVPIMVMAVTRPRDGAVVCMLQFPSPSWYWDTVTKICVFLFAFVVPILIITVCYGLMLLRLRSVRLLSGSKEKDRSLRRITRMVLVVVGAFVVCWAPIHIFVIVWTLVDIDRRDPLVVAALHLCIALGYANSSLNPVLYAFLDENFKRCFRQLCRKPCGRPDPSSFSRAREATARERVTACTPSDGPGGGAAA
T2 sequence (P35372 whole entry): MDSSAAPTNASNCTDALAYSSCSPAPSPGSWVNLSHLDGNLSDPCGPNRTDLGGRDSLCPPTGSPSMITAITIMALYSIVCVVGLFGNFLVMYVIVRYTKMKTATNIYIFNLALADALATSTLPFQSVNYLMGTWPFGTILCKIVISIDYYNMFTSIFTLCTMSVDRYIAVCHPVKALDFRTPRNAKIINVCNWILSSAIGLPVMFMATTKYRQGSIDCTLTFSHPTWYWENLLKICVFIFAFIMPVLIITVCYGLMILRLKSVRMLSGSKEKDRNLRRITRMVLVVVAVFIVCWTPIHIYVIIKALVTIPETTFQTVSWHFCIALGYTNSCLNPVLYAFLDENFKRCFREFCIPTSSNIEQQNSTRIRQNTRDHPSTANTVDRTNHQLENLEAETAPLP

CC1C2Cc3ccc(C(N)=O)cc3C1(C)CC[N+]2(C)CC1CC1 (stereo not shown) [Compound 10, 8-Carboxamido-cyclazocine methiodide] gave a melting point of 237 to 238 °C, a Ki (human δ opioid receptor [1]) of 360 ± 6.5 nM and a Ki (human μ opioid receptor [2]) of 1.4 ± 0.19 nM. The Ki (human κ opioid receptor [3]) was 17 ± 1.2 nM, the “K: δ” value (human κ opioid receptor [3]) was 21 and the “K: μ” value (human κ opioid receptor [3]) was 0.082.
In the case of C[N+]1(CC2CC2)CC[C@]23c4c5ccc(C(N)=O)c4O[C@H]2C(=O)CC[C@@]3(O)[C@H]1C5 (stereo partly shown) [Compound 4, 3-Carboxamido-naltrexone methiodide], the melting point is reported as 189 to 190 °C, the “[3H]Naltrindole (δ) inhibition” value (human δ opioid receptor [4]; @ 10 μm) is reported as 31% inh. @ 10 μm and the “K: δ” value (human κ opioid receptor [3]) is reported as 143. For the same compound, the “K: μ” value (human κ opioid receptor [3]) was 0.18 and the Ki (human κ opioid receptor [3]; [11]) was 210 ± 22 nM.
For C[N+]1(CC2CC2)CC[C@]23CC(=O)CC[C@@]2(O)[C@H]1Cc1ccc(C(N)=O)c(O)c13 (stereo partly shown) [Compound 6, 3-Carboxamido-4-hydroxy-naltrexone methiodide], the “activity in blocking PGE2-induced diarrhea” value ([5]; mice, doses of 1-10 mg/kg, both routes (IP, PO)) was “very good activity”, the “reversal of the effects of morphine on PGE2-induced diarrhea” value ([5]; mice, each route, IP and PO, FIG. 1) was “dose-dependent reversal of the effects of morphine” and the “blocking the analgesic effects of morphine, tail flick” value ([6]; mice, IP route) was “moderately effective”. The “blocking the effects of morphine, tail flick” value ([6]; mice, oral administration) was “much less effective”, the “effect on response to morphine, tail flick” value ([6]; mice, 10 mg/kg) was “did not affect the response to morphine” and the “effect on response to morphine, tail flick” value ([6]; mice, maximum dose 30 mg/kg, FIG. 2) was “only partially reverse”. The “blocking the analgesic effects of morphine, hot plate” value ([7]; mice, IP route, FIG. 3) was “marginally effective”, the “change from the baseline morphine response, hot plate” value ([7]; mice, IP, 3 mg/kg) was 20-25% and the “effect on the response to morphine, hot plate” value ([7]; mice, orally, doses up to 30 mg/kg) was “no effect”. The absorption [8] was “low”, the melting point was 197 to 198 °C and the Ki (human δ opioid receptor [4]; read-out: [3H]Naltrindole (δ) Ki, CHO membranes, human receptor, mean ± SEM) was 280 ± 21 nM. For the same compound, the “agonist properties at the κ opioid receptor” value (human κ opioid receptor [9]; compound alone) was “did not display any agonist properties”, the Emax (human κ opioid receptor [9]; compound alone, Mean ± S.E, read-out: Kappa Cmpd. Alone Emax) was 3 ± 2.6% and the IC50 (human κ opioid receptor [9]; with 100 nM U50,488, Mean ± S.E) was 7800 ± 530 nM. For the same compound, the Ki (human μ opioid receptor [2]; [12]) was 1.3 ± 0.13 nM, the “K: μ” value (human κ opioid receptor [3]) was 0.17 and the Ki (human κ opioid receptor [3]; [11]) was 7.7 ± 0.9 nM. For the same compound, the Emax (human μ opioid receptor [10]; read-out: Mu Cmpd. Alone Emax) was -0.28 ± 0.39%, the IC50 (human μ opioid receptor [10]; read-out: Mu With DAMGO IC50, with 200 nM DAMGO, Mean ± S.E) was 52 nM and the “Mu With DAMGO Imax” value (human μ opioid receptor [10]; with 200 nM DAMGO, Mean ± S.E) was 96 ± 1.2%.
For C[N@+]1(CC2CC2)CC[C@]23CCCC[C@@]2(O)[C@H]1Cc1ccc(C(N)=O)c(O)c13.[Cl-] [Compound 14, (17R)-17-(Cyclopropylmethyl)-4,14-dihydroxy-17-methylmorphinan-17-ium-3-carboxamide chloride], the “effect on morphine's ability to block PGE2-induced diarrhea” value ([5]; IP administration at 3 mg/kg) was “reduces morphine's ability to block PGE2-induced diarrhea”, the “difference from baseline, tail flick” value ([6]; even at 30 mg/kg) was “no statistical difference from baseline” and the “central activity (hot plate)” value ([7]; hot plate test) was “poor central activity”. For the same compound, the “dose at which a statistical difference from baseline is first seen, hot plate” value ([7]; hot plate test) was 30 mg/kg and the “hot plate dose relative to dose required in the PGE2 test” value ([7]; hot plate vs PGE2 test) was 3 to 10 times higher dose.
In the case of C[C@H]1[C@H]2Cc3ccc(O)cc3[C@]1(C)CCN2CC1CC1 [cyclazocine], the duration of action (antinociception) is given as 2 h.
With CC1C2Cc3ccc(O)cc3C1(C)CC[N+]2(C)CC1CC1 (stereo not shown) [Compound 8, Cyclazocine methiodide] the melting point was 165 to 168 °C, the “K: δ” value (human κ opioid receptor [3]) was 95 and the “K: μ” value (human κ opioid receptor [3]) was 0.2.
With C[N+]1(CC2CC2)CC[C@]23c4c5ccc(O)c4O[C@H]2C(=O)CC[C@@]3(O)[C@H]1C5 (stereo partly shown) [Compound 2, Naltrexone Methiodide, reference compound] the Ki (human μ opioid receptor [2]; [12]) was 2 ± 0.27 nM, the “K: δ” value (human κ opioid receptor [3]) was 143 and the “K: μ” value (human κ opioid receptor [3]) was 0.32. The Ki (human κ opioid receptor [3]; [11]) was 6.3 ± 0.46 nM.
For C[C@H]1C2Cc3ccc(C(N)=O)cc3[C@@]1(C)CCN2CC1CC1 [Compound 8-CAC, 8-carboxamidocyclazocine], the “affinity for μ opioid receptors” value (μ opioid receptors) is listed as “high affinity”, the “affinity for κ opioid receptors” value (κ opioid receptors) is listed as “high affinity” and the duration of action (antinociception) is listed as 15 h. The antinociception activity (antinociception; in vivo, mice) was “high antinociception activity”.
